# Where two headings read alike, the source gives them in different places.
# What was measured:
# L. major [1] = test: ChEMBL dataset of pIC50 values against L. major used for the RF model (Table S1); type: cell-based, Leishmania major; further: call rule not given here
# Text: From the ChEMBL database (https://www.ebi.ac.uk/chembl/, accessed on 10 January 2021), we selected a diverse set of 1085 structures that were initially classified according to their predicted activity against L. major.
# Excluding these structures minimized the differences in activity values resulting from errors and differences in experimental protocols. […] Standardizer software [JChem, version 16.11.28 (2016), calculation module developed by ChemAxon, https://www.chemaxon.com/, accessed on 20 January 2021] was used to canonize all simplified molecular-input line-entry system (SMILES) codes. After duplicate structures were removed, those with higher pIC50 values were eliminated, facilitating the generation of more restrictive models.
# L. major [2] = tested on: L. major; parameters: method as in ChEMBL; conditions: ref ChEMBL, cited from earlier work
# [3] = Active/Inactive class assigned to the ChEMBL pIC50 value for Random forest model construction, ref ChEMBL
# [4] = ChemBL structures with pIC50 values used for Random forest model construction, L. major
# [5] = Active/Inactive class assigned to ChemBL structures for Random forest model construction (Table S1)
# [6] = ChemBL structures with pIC50 values used for Random forest model construction (Table S1)
Compound,Outcome (L. major [1]; [3]),pIC50 Value (L. major [2]; [4]),Outcome (L. major [1]; [5]),pIC50 Value (L. major [2]; [6])
CC(=O)N1CCN(c2ccc(OC[C@H]3CO[C@](Cn4ccnc4)(c4ccc(Cl)cc4Cl)O3)cc2)CC1 (racemic) [CHEMBL75],Inactive,4.62,,
COc1cc(NS(C)(=O)=O)ccc1Nc1c2ccccc2nc2ccccc12 [CHEMBL43],,,Active,5.82
N=C(N)c1ccc(OCCCCCOc2ccc(C(=N)N)cc2)cc1 [CHEMBL55],Inactive,4.82,,
OC(Cn1cncn1)(Cn1cncn1)c1ccc(F)cc1F [CHEMBL106],Inactive,3.79,,
CCCCCCCCCCCCCCCCOP(=O)([O-])OCC[N+](C)(C)C [CHEMBL125],Inactive,4.44,,
COC(=O)C1=C(C)NC(C)=C(C(=O)OC)C1c1ccccc1[N+](=O)[O-] [CHEMBL193],Inactive,3.74,,
C[C@@H](c1ncncc1F)[C@](O)(Cn1cncn1)c1ccc(F)cc1F [CHEMBL638],Active,5.21,,
N=C(N)c1ccc(OCCCCCOc2ccc(C(=N)N)cc2)cc1.O=S(=O)(O)CCO [CHEMBL935],Inactive,4.08,,
COCCOC(=O)C1=C(C)NC(C)=C(C(=O)OC(C)C)C1c1cccc([N+](=O)[O-])c1 (centres unmarked) [CHEMBL1428],Inactive,4.51,,
COC(=O)C1=C(C)NC(C)=C(C(=O)OCCN(C)Cc2ccccc2)C1c1cccc([N+](=O)[O-])c1 (centres unmarked) [CHEMBL1484],Inactive,4.66,,
CCOC(=O)C1=C(COCCN)NC(C)=C(C(=O)OC)C1c1ccccc1Cl (centres unmarked) [CHEMBL1491],,,,5.47
COc1ccc(CCN(C)CCCC(C#N)(c2ccc(OC)c(OC)c2)C(C)C)cc1OC (centres unmarked) [CHEMBL6966],,4.39,,
O=C(/C=C/c1ccc(O)cc1)c1ccccc1 [CHEMBL7747],,,Active,5.40
CN(C)Cc1ccc(Nc2c3ccc(N)cc3nc3cc(N)ccc23)cc1 [CHEMBL34804],,,Active,5.30
CN(C)c1ccc(Nc2c3ccccc3nc3ccccc23)cc1 [CHEMBL34941],,,Active,6.05
CN(C)Cc1ccc(Nc2c3ccc(Cl)cc3nc3cc(Cl)ccc23)cc1 [CHEMBL36404],,,Active,5.70
CN(C)c1ccc2c(Nc3ccccc3)c3ccc(N(C)C)cc3nc2c1 [CHEMBL37644],,,Active,7.52
c1ccc(Nc2c3ccccc3nc3ccccc23)cc1 [CHEMBL49436],,,Active,5.57
CCC(C)n1ncn(-c2ccc(N3CCN(c4ccc(OCC5COC(Cn6cncn6)(c6ccc(Cl)cc6Cl)O5)cc4)CC3)cc2)c1=O (centres unmarked) [CHEMBL64391],,,Active,5.70
c1cncc(-c2nc3ccccc3[nH]2)c1 [CHEMBL83103],,,Active,5.48
Nc1ccc(Nc2c3ccccc3nc3ccccc23)cn1 [CHEMBL84678],,,Active,5.41
CCN(C)c1ccc(Nc2c3ccccc3nc3ccccc23)cc1 [CHEMBL86724],,,Active,6.00
CCCCCCNc1ccc(Nc2c3ccc(N(C)C)cc3nc3cc(N(C)C)ccc23)cc1 [CHEMBL86823],,,Active,6.80
CCCCCCN(CCCCCC)c1ccc(Nc2c3ccccc3nc3ccccc23)cc1 [CHEMBL88123],,,Active,6.62
CCCCCCN(C)c1ccc(Nc2c3ccc(N(C)C)cc3nc3cc(N(C)C)ccc23)cc1 [CHEMBL88461],,,Active,7.15

Compound,Outcome (L. major [1]; [3]),pIC50 Value (L. major [2]; [4]),Outcome (L. major [1]; [5]),pIC50 Value (L. major [2]; [6])
CCCCCCNc1ccc(Nc2c3ccccc3nc3ccccc23)cc1OC [CHEMBL88507],,,Active,6.40
CCCCCCN(C)c1ccc(Nc2c3ccccc3nc3ccccc23)cc1OC [CHEMBL88682],,,Active,6.22
CCCN(CCC)c1ccc(Nc2c3ccccc3nc3ccccc23)cc1 [CHEMBL88980],,,Active,6.70
CCCCCN(CCCCC)c1ccc(Nc2c3ccccc3nc3ccccc23)cc1 [CHEMBL89031],,,Active,6.80
NCCNCCc1ccc(Nc2c3ccccc3nc3ccccc23)cc1 [CHEMBL89150],,,Active,6.15
c1ccc2c(Nc3ccc(NC4CCCCC4)cc3)c3ccccc3nc2c1 [CHEMBL89171],,,Active,6.26
CCCCCCNc1ccc(Nc2c3ccc(Cl)cc3nc3ccc(OC)cc23)cc1OC [CHEMBL89400],,,Active,6.30
CCN(CC)CCCNc1ccc(Nc2c3ccccc3nc3ccccc23)cc1 [CHEMBL89458],,,Active,6.70
CCN(CC)CCCc1ccc(Nc2c3ccccc3nc3ccccc23)cc1 [CHEMBL89519],,,Active,6.52
CCCCCNCc1ccc(Nc2c3ccccc3nc3ccccc23)cc1 [CHEMBL89683],,,Active,5.70
CCCCCCOc1ccc(Nc2c3ccccc3nc3ccccc23)cc1 [CHEMBL89758],,,Active,6.00
c1ccc2c(Nc3ccc(NC4CCCC4)cc3)c3ccccc3nc2c1 [CHEMBL90679],,,Active,6.35
c1ccc2c(Nc3ccc(CN4CCCC4)cc3)c3ccccc3nc2c1 [CHEMBL91079],,,Active,6.70
CCN(CC)CCNc1ccc(Nc2c3ccccc3nc3ccccc23)cc1OC [CHEMBL92012],,,Active,5.80
CNc1ccc(Nc2c3ccccc3nc3ccccc23)cc1OC [CHEMBL92157],,,Active,5.44
C=CC(C)(C)c1cc(/C=C/C(=O)c2ccc(O)cc2)c(OC)cc1O [CHEMBL139702],Inactive,4.85,,
COc1ccc(/C=C/C(=O)c2ccccc2O)c(OC)c1 [CHEMBL143265],,,Active,5.34
COc1ccc(/C=C/C(=O)c2ccccc2)c(OC)c1 [CHEMBL144626],,,Active,5.40
NP(=O)(OCc1ccc([N+](=O)[O-])cc1)N(CCCl)CCCl (centres unmarked) [CHEMBL144896],Inactive,4.52,,
c1ccc(-c2nc3ccccc3[nH]2)cc1 [CHEMBL153535],,,Active,5.46
CC(C)=CCC/C(C)=C/CC/C(C)=C/COc1ccc2ccc(=O)oc2c1 [CHEMBL156127],Inactive,4.88,,
O=[N+]([O-])c1ccc2nc(-c3cccnc3)[nH]c2c1 [CHEMBL159327],,,Active,5.48
C[C@H]1COC2=C1C(=O)C(=O)c1c2ccc2c1CCCC2(C)C [CHEMBL187460],Inactive,4.74,,
O=[N+]([O-])c1ccc(-c2nnc(N3CCCCC3)s2)s1 [CHEMBL191691],Inactive,3.82,,
CC(=O)N1CCN(c2nnc(-c3ccc([N+](=O)[O-])o3)s2)CC1 [CHEMBL192375],,,Active,5.96
